We go through 3 compounds from patent US8298543B2, “Identification and application of antibiotic synergy” (priority 2005, dated 2012).

The subject of data set [1] is B. anthracis murB-2 antisense strain.
For data set [2], the system named is S. aureus engineered with murB antisense. The class given is cell-based, Staphylococcus aureus.

Regarding `CO/N=C(\C(=O)N[C@@H]1C(=O)N2C(C(=O)O)=C(COC(C)=O)CS[C@H]12)c1csc(N)n1` [cefotaxime], the “IC50 shift (ratio of EC50 with and without xylose)” value in data set [1] worked out at 343.

Regarding `CO[C@@]1(NC(=O)Cc2cccs2)C(=O)N2C(C(=O)O)=C(COC(N)=O)CS[C@@H]21` [cefoxitin], in data set [2], the “change of potency / sensitivity in presence of inducer” value is reported as “increase in potency”.

For the compound `Cc1onc(-c2c(Cl)cccc2Cl)c1C(=O)N[C@@H]1C(=O)N2[C@@H]1SC(C)(C)[C@@H]2C(=O)O` [dicloxacillin], in data set [2], the “change of potency / sensitivity in presence of inducer” value was “increase in potency”.
